{"source": "a melting point compilation (Tetko et al.; mined from patent text by program, amines drawn as free bases though some values may be those of a salt)"}
{"units": {"melting point": "°C"}}
{"smiles": "Cc1ccc(S(=O)(=O)On2nnc3ccc(Cl)cc32)cc1", "melting point": "94 to 96"}
{"smiles": "COc1cc2c(cc1OC)C1=NCCc3cccc(c31)C2=O", "melting point": 228}
{"smiles": "O=C1c2ccccc2C(=O)N1CCSCc1ccco1", "melting point": "59 to 61"}
{"smiles": "N#CCCNC(=O)c1n[nH]cc1NC(=O)c1ccc(Br)o1", "melting point": "220 to 222"}
{"smiles": "COC(=O)Cc1nc2cc(OC)c(OC)cc2c(-c2ccc(OC)c(OC)c2)c1C(=O)OC", "melting point": "170 to 171"}
{"smiles": "CCOC(=O)c1cc2n(c1)CN(C(=O)OCC)c1ccc(Br)cc1-2", "melting point": "161 to 163"}
{"smiles": "CCCNC(=O)NS(=O)(=O)c1ccccc1Br", "melting point": "218 to 219"}
{"smiles": "Cc1c([N+](=O)[O-])ccnc1CSc1nc2ccc(C(F)(F)F)cc2[nH]1", "melting point": "192 to 193"}
{"smiles": "COC(=O)c1ccccc1OCC(O)CNCCNC(=O)Cc1ccccc1", "note": "(stereo not given)", "melting point": "114 to 115"}
{"smiles": "CC(C)(C)[Si](C)(C)OC1CN(c2ccc(NC(=O)OCc3ccccc3)cc2F)C1", "melting point": "91 to 93"}
{"smiles": "COc1ccccc1N(C(N)=O)c1ccc(CC(=O)O)cc1C", "melting point": "260 to 264"}
{"smiles": "Cc1cccc2c1c(N1CCOCC1)nc1c(-c3nc(C4CC4)no3)ncn12", "melting point": "262 to 266"}
{"smiles": "COC(=O)[C@@H](Cc1ccc(-c2ncnc3c2ncn3[C@@H]2CCCCO2)cc1)NC(=O)OC(C)(C)C", "melting point": "144 to 147"}
{"smiles": "c1cc(Cc2cc3ccccc3[nH]2)cc(-c2cc3ccccc3[nH]2)c1", "melting point": "193 to 194"}
{"smiles": "COc1ccc2c(c1)OC(CN)C2", "note": "(stereo not given)", "melting point": "> 220"}
{"smiles": "Cc1ccccc1C1(O)c2cc(NC(=O)CC(C)(C)C)c(C)c(C)c2OC1(C)C", "note": "(stereo not given)", "melting point": "111 to 112"}
{"smiles": "CCCc1nc2c(N)nc3ccccc3c2n1CCCC(=O)N1CCOCC1", "melting point": "200 to 202"}
{"smiles": "CCCOC(=O)c1sc(C(=O)OCCC)c(OS(=O)(=O)c2ccc(Br)cc2)c1C", "melting point": "73 to 74"}
{"smiles": "CS(=O)(=O)N(Cc1cccnc1)c1ccccc1F", "melting point": 120}
{"smiles": "CCOC(=O)C(C(=O)O)=C1SCS1", "melting point": "166 to 167"}
{"smiles": "CCCCC1CSC(C(=O)Nc2c(SC)cc(C)nc2SC)c2cc(OC)c(OC)cc2C1", "note": "(stereo not given)", "melting point": "143 to 145"}
{"smiles": "Cc1c(Cc2ccccc2)c(=O)n(Cc2ccc(F)cc2)c2cc(OCc3nnn[nH]3)cc(OCc3nnn[nH]3)c12", "melting point": "126 to 132"}
{"smiles": "O=C(Nc1ccc(N2CCCCC2)cc1)N(C[C@H]1CC[C@H](CN(C(=O)Nc2ccc(N3CCCCC3)cc2)C2CCCCC2)CC1)C1CCCCC1", "melting point": "174 to 178"}
{"smiles": "CCOC(=O)CCC(=O)c1ccc(CCNS(=O)(=O)c2cccc(C(F)(F)F)c2)cc1", "melting point": "83 to 85"}
{"smiles": "O=C(CN(C(=O)c1cccc(C(F)(F)F)c1)c1ccccc1)Nc1ccc(Cl)c(Cl)c1", "melting point": "130 to 132"}
{"smiles": "CN1CCN(C(=O)/C=C/c2occc(=O)c2OCC(=O)OC(C)(C)C)CC1", "melting point": "124 to 125"}
{"smiles": "CCN1CCN(c2ccc(Br)cc2)CC1", "melting point": 112}
{"smiles": "CCCC[C@H](NC(=O)[C@H](CC(C)C)NC(=O)c1cccc(F)c1F)C(=O)CSCc1ccco1", "melting point": "120 to 122"}
{"smiles": "CC(=O)Oc1ccccc1C(=O)Nc1cc(Cl)cc(Cl)c1", "melting point": "167 to 168"}
{"smiles": "Cc1cc(C(O)(C(F)(F)F)C(F)(F)F)cc(C)c1NCCO", "melting point": "110 to 113"}
{"smiles": "C=CCNc1nc(C)ccc1C(=O)OC", "melting point": "140 to 142"}
{"smiles": "CCOC(=O)c1ncn2c1CN(C)C(=O)c1ncccc1-2", "melting point": "252 to 254"}
{"smiles": "CCOC(=O)c1ccc(OCC2=CCN(c3ccc(Cl)nn3)CC2)cc1", "melting point": 162}
{"smiles": "O=C1c2ccc(F)cc2CC1c1ccc(F)cc1", "note": "(stereo not given)", "melting point": "72 to 74"}
{"smiles": "COc1cc(N)c(Cl)cc1C(=O)NCC1CCN(CCCCCN2C(=O)c3ccccc3C2=O)CC1", "melting point": "58 to 61"}
{"smiles": "c1ccc(-c2cc3ccc4ccccc4n3n2)cc1", "melting point": "85 to 86"}
{"smiles": "c1ccc(C2(Cn3cncn3)OCCO2)cc1", "melting point": 127}
{"smiles": "CCCn1c(COCC)nc2c(N)nc3ccc(OCCNS(C)(=O)=O)cc3c21", "melting point": "178 to 180"}
{"smiles": "COCCOc1cc(C(F)(F)F)cnc1-c1nc(C)c(-c2ccnc(Nc3ccc(N4CCOCC4)cc3)n2)s1", "melting point": "175 to 178"}
{"smiles": "CC(=O)c1ccc(S)cc1", "melting point": 71}
{"smiles": "COC(=O)c1cc(-c2nnn(C)n2)c(C(=O)OC)s1", "melting point": "121 to 122"}
{"smiles": "O=C(CC(=O)C(F)(F)F)c1ccc(-n2cccn2)cc1", "melting point": 96}
{"smiles": "CC(C)C[C@H](NC(=O)CCC1CCCCC1)C(=O)N[C@@H](Cc1ccccc1)C(=O)CSCc1ccco1", "melting point": "116 to 118"}
{"smiles": "CCOc1cccc(-c2cc(F)c(NC(=O)c3ccccc3CO)c(Cl)c2)c1", "melting point": "139 to 142"}
{"smiles": "COc1cccc(C(=O)c2sc3cc(OC)ccc3c2-c2ccccc2)c1", "melting point": "101 to 103"}
{"smiles": "CC(CC(=O)OCc1ccccc1)NC(=O)CCNC(=O)OC(C)(C)C", "note": "(stereo not given)", "melting point": "70 to 72"}
{"smiles": "O=C(O)C(=O)c1ccc(CCCOc2ccc3ccccc3c2)cc1", "melting point": "151 to 154"}
{"smiles": "c1ccc(C2Cn3c(nc4cc5ccccc5cc43)S2)nc1", "note": "(stereo not given)", "melting point": 198}
{"smiles": "Cc1c(C=CCN2CC=C(c3ccccc3)CC2)cnn1-c1ncccn1", "melting point": "112 to 114"}
{"smiles": "CC#CCn1c(Oc2cc(C)cc(C)c2)c(C(C)C)c(=O)[nH]c1=O", "melting point": "158 to 160"}
